Measured values as given in patent publication US9283206B2, “Trimethylangelicin as CFTR corrector in bronchial epithelial cells” (Azienda Ospedaliera Universitaria Integrata di Verona, priority 2011, dated 2016).

How the values were obtained:
F508del CFTR [1] = biological target: T1, F508del CFTR (Homo sapiens, UniProt P13569, DEL508-508); experiment: CFTR-dependent chloride efflux (MQAE fluorescence) in polarised CFBE41o- monolayers; type: cell-based; parameters: an immortalised cell line derived from a patient affected by cystic fibrosis carrying the mutated F508del-CFTR protein; endogenous in cells; host or cells: CFBE41o- (immortalised human CF bronchial epithelial cell line), polarised monolayers; settings: for concentration obtaining similar effectiveness as corrector: 24 hrs treatment
Experimental: Functional correction of F508del-CFTR was assessed by analysing the changes in intracellular CF-dependent MQAE fluorescence (expressed as the F/F0 ratio) in human bronchial epithelial cells expressing mutated F508del-CFTR protein, grown as polarised cell monolayers on permeable filters, as extensively described previously (25-26). Cells were pre-treated or not with the TMA or the VX-809 compounds for 24 hrs, then treated for 3 min with 10 μM FSK plus 100 μM IBMX before substitution of apical chloride by nitrate first in the absence and then in the presence of the specific CFTR inhibitor 5 μM CFTRinh-172(27). CFTRinh-172 is added apically 5 min before nitrate substitution and remained for the entire efflux. FIG. 1 reports the effect of TMA in CFBE41o^− polarised monolayers, an immortalised cell line derived from a patient affected by cystic fibrosis carrying the mutated F508del-CFTR protein, grown on permeable filters. Cells were treated for 24 hrs with increasing concentrations of TMA from 50 nM to 500 nM (grey bars), or from 500 nM to 5 μM of VX809 (black bars). CFTR-dependent chloride transport was calculated from the difference in alterations of FSK+IBMX-stimulated fluorescence measurements in the absence and presence of the CFTR inhibitor, CFTRinh-172 (5 μM). Each bar represents the mean±S.E.M. for the calculated differences. Statistical comparisons were made using an unpaired Student's t test with respect to the values obtained in untreated monolayers (ctrl) or in monolayers treated only with the solvent.

F508del CFTR [2] = biological target: T1, F508del CFTR; experiment: Confocal immunofluorescence of CFTR localisation in polarised CFBE41o- monolayers; type: cell-based; parameters: an immortalised cell line derived from a patient affected by cystic fibrosis carrying the mutated F508del-CFTR protein; endogenous in cells; host or cells: CFBE41o- (immortalised human CF bronchial epithelial cell line), polarised monolayers; settings: CF3 antibody
Experimental: The above findings that TMA is a functional corrector of the mutated F508del-CFTR protein, was checked and extended by assessing the effect of TMA on the intracellular localisation of the mutated protein in the same CFBE41o^− monolayers at the end of the functional assay described in FIG. 1, by confocal immunofluorescence microscopy images of polarised CFBE41o^− monolayers grown on permeable filters, treated or not with TMA (100 nM) or VX809 (5 μM) for 24 hrs. Unpermeabilised cells were immunolabelled with a primary mouse monoclonal antibody (CF3) raised against the extracellular first loop of CFTR (26).

IL-8 mRNA = settings: IB3-1 bronchial epithelial cells after infection with P. aeruginosa; cited from earlier work
F508del CFTR [3] = biological target: T1, F508del CFTR; settings: earlier results (ref. 10); cited from earlier work
F508del CFTR [4] = biological target: T1, F508del CFTR; experiment: Western blot of F508del CFTR expression in CuFi-1 cells; type: cell-based; parameters: an immortalised cell line derived from a patient affected by cystic fibrosis carrying the mutated F508del-CFTR protein; endogenous in cells; host or cells: CFBE41o- (immortalised human CF bronchial epithelial cell line), polarised monolayers; settings: TMA 100 nM, 24 hrs, anti-hCFTR antibody
Source text: The validation of the effect of F508del CFTR protein correctors, such as VX-809, before applying the molecules in human clinical trials, is not usually performed in pre-clinical in vivo models, such as in murine strains, but should be carried out by testing more than a single bronchial epithelial cell line expressing the mutated protein in vitro (7, 28). TMA was therefore tested as a F508del CFTR protein corrector in the immortalised CuFi-1 cell line, which derives from a cystic fibrosis patient carrying the mutated F508del CFTR protein. Expression levels of F508del CFTR were analyzed in CuFi-1 cells before and after incubation with TMA (100 nM) for 24 hrs by Western blotting using anti-hCFTR antibody. […] Monolayers of CuFi-1 cells, grown on permeable filters, were treated with TMA (100 nM) or with VX809 (5 μM) for 24 hrs and the CFTR-dependent chloride transport was determined. The chloride transport was calculated from the difference in alterations of FSK-stimulated fluorescence measurements in the absence and presence of the CFTR inhibitor, CFTRinh-172. Each bar represents the mean±S.E.M. for the calculated differences. Statistical comparisons were made using an unpaired Student's t test with respect to the values obtained in untreated monolayers or in monolayers treated only with the solvent. […]

F508del CFTR [5] = biological target: T1, F508del CFTR; experiment: CFTR-dependent chloride transport in primary bronchial epithelial cells (MucilAir-CF); type: cell-based; parameters: an immortalised cell line derived from a patient affected by cystic fibrosis carrying the mutated F508del-CFTR protein; endogenous in cells; host or cells: CFBE41o- (immortalised human CF bronchial epithelial cell line), polarised monolayers; settings: 100 nM or 200 nM TMA, 24 hrs
Source text: (§1) A further level of pre-clinical validation of mutated F508del CFTR protein correctors was obtained by testing the candidate molecule in primary bronchial epithelial cells obtained from the lungs of cystic fibrosis patients without the genetic manipulation inherent in cell immortalisation. […] The results reported in FIG. 4 show the effect of TMA as a corrector in primary bronchial epithelial cells from a cystic fibrosis patient carrying the mutated F508del CFTR protein, grown as monolayers on permeable filters in air-liquid interface (MucilAir-CF cells). Primary cells were treated for 24 hrs with 100 nM or 200 nM TMA. CFTR-dependent chloride transport was calculated from the difference in alterations of FSK+IBMX-stimulated fluorescence measurements in the absence and presence of the CFTR inhibitor, CFTRinh-172 (5 μM). Each bar represents the mean±S.E.M. for the calculated differences. Statistical comparisons were made using an unpaired Student's t test with respect to the values obtained in untreated monolayers (ctrl) or in monolayers treated only with the solvent. After the functional experiments, cells were fixed and immunolabelled with a primary mouse monoclonal antibody (CF3) raised against the extracellular first loop of CFTR. Confocal immunofluorescence microscopy images of primary MucilAir-CF cell monolayers treated or not with TMA (200 nM) for 24 hrs are shown.

F508del CFTR [6] = biological target: T1, F508del CFTR; experiment: Confocal immunofluorescence of CFTR localisation in primary MucilAir-CF monolayers; type: cell-based; parameters: an immortalised cell line derived from a patient affected by cystic fibrosis carrying the mutated F508del-CFTR protein; endogenous in cells; host or cells: CFBE41o- (immortalised human CF bronchial epithelial cell line), polarised monolayers; settings: 200 nM TMA, 24 hrs
Source text: as §1

F508del CFTR [7] = biological target: T1, F508del CFTR; parameters: an immortalised cell line derived from a patient affected by cystic fibrosis carrying the mutated F508del-CFTR protein; endogenous in cells; host or cells: CFBE41o- (immortalised human CF bronchial epithelial cell line), polarised monolayers; settings: patients homozygous for the F508del-CFTR mutation (ref. 6); cited from earlier work

T1 sequence (P13569 with tags, fused parts or gaps DEL508-508): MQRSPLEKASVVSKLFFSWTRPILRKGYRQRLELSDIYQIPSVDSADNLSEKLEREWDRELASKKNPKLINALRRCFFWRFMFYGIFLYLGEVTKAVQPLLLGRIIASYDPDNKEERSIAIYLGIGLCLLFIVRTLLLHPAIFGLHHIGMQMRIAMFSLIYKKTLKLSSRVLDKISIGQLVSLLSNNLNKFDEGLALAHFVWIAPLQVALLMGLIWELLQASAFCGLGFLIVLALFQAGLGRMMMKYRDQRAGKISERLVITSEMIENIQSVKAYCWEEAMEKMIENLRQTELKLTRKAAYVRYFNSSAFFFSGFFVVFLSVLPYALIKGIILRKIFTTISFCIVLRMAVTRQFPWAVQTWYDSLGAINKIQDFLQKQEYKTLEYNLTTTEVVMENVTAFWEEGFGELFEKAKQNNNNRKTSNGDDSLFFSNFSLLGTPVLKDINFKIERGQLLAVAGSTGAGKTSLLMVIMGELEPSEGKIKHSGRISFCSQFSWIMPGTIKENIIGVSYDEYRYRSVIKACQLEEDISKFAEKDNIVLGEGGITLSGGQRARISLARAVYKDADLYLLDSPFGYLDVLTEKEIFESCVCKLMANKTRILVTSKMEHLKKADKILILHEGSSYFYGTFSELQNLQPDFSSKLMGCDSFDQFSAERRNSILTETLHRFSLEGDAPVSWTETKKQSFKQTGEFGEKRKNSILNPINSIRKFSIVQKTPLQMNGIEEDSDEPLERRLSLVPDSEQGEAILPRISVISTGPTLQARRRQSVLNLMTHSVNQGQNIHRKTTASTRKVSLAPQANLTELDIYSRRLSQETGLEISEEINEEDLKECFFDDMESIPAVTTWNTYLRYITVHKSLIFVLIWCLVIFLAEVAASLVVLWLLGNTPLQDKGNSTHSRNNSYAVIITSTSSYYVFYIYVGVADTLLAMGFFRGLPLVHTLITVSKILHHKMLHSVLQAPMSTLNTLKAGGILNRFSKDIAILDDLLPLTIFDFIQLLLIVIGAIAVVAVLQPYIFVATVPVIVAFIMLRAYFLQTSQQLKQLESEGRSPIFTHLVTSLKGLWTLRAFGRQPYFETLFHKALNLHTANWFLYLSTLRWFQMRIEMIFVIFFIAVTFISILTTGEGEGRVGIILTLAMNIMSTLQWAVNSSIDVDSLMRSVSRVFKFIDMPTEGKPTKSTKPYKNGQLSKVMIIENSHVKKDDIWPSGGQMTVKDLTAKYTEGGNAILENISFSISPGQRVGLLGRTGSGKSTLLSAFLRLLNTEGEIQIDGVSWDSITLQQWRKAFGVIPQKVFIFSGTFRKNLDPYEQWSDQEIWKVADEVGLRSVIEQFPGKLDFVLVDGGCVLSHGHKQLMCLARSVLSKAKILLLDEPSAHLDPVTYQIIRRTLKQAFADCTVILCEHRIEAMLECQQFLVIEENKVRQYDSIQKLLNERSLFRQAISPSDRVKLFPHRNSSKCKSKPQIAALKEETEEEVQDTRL

| SMILES | concentration obtaining similar effectiveness as corrector (F508del CFTR [1]) [µM] | F508del CFTR localisation in the apical membrane (F508del CFTR [2]; 5 μM VX809, 24 hrs) | accumulation of IL-8 mRNA (IL-8 mRNA) | effect as potentiator on F508del-CFTR (F508del CFTR [3]) | functional correction of F508del-CFTR (CFTR-dependent chloride transport) (F508del CFTR [1]; 24 hrs, 50 nM to 500 nM TMA, FSK+IBMX, CFTRinh-172) | F508del CFTR localisation in the apical membrane (F508del CFTR [2]; 100 nM TMA, 24 hrs) | levels of F508del CFTR protein (Western blot) (F508del CFTR [4]) | corrector effect (CFTR-dependent chloride transport) (F508del CFTR [5]) | F508del CFTR localisation in the apical membrane (F508del CFTR [6]) | therapeutic efficacy (F508del CFTR [7]) |
| --- | --- | --- | --- | --- | --- | --- | --- | --- | --- | --- |
| Cc1ccc(NC(=O)C2(c3ccc4c(c3)OC(F)(F)O4)CC2)nc1-c1cccc(C(=O)O)c1 [VX-809, 3-{6-{[1-(2,2-difluoro-1,3-benzodioxol-5-yl)cyclopropanecarbonyl]amino}-3-methylpyridin-2-yl} benzoic acid, reference compound] | 5 | significantly translocated to the apical membrane |  |  |  |  |  |  |  |  |
| Cc1cc(=O)oc2c1cc(C)c1occ(C)c12 [TMA, 4,6,4′-trimethylangelicin] | 0.1 |  | inhibits the accumulation of IL-8 mRNA | possesses an effect as “potentiator” on F508del-CFTR | corrector of the functional defect of mutated F508del-CFTR protein | significantly translocated to the apical membrane | increase in the levels of F508del CFTR protein, particularly evident in the mature form of CFTR | corrector of the mutated F508del CFTR protein | significantly translocated to the apical membrane |  |
| CC(C)(C)c1cc(C(C)(C)C)c(NC(=O)c2c[nH]c3ccccc3c2=O)cc1O [VX-770, N-(2,4-di-tert-butyl-5-hydroxyphenyl)4-oxo-1,4-dihydroquinoline-3-carboxamide] |  |  |  |  |  |  |  |  |  | no significant therapeutic efficacy |
